The test has as its system L1210 leukemia ip in BDF1 mice, survival T/C. Kind of test: NCI In Vivo Anticancer Drug Screen. Data for tumor model L1210 Leukemia (intraperitoneal) in B6D2F1 (BDF1) mice. As to conditions: higher = longer survival. A digest of the protocol: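 Read-out is survival time, reported as the treated-group measurement over the vehicle-control measurement.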
[1] abbreviates: endpoint: mean survival time, dose: 100.0 mg/kg/injection, schedule: Q01DX001 (ip), vehicle: saline.
[2] abbreviates: endpoint: mean survival time, dose: 200.0 mg/kg/injection, schedule: Q01DX001 (ip), vehicle: saline.
Setting [3] is: endpoint: mean survival time, dose: 400.0 mg/kg/injection, schedule: Q01DX001 (ip), vehicle: saline.
Setting [4] is: endpoint: mean survival time, dose: 100.0 mg/kg/injection, schedule: Q01DX009 (ip), vehicle: Klucel (hydroxypropylcellulose) (HPC).
Where [5] appears, read: endpoint: mean survival time, dose: 200.0 mg/kg/injection, schedule: Q01DX009 (ip), vehicle: Klucel (hydroxypropylcellulose) (HPC).
Where [6] appears, read: endpoint: mean survival time, dose: 400.0 mg/kg/injection, schedule: Q01DX009 (ip), vehicle: Klucel (hydroxypropylcellulose) (HPC).
Where [7] appears, read: endpoint: mean survival time, dose: 100.0 mg/kg/injection, schedule: Q04DX003 (ip), vehicle: Klucel (hydroxypropylcellulose) (HPC).
[8] abbreviates: endpoint: mean survival time, dose: 200.0 mg/kg/injection, schedule: Q04DX003 (ip), vehicle: Klucel (hydroxypropylcellulose) (HPC).
Where [9] appears, read: endpoint: mean survival time, dose: 400.0 mg/kg/injection, schedule: Q04DX003 (ip), vehicle: Klucel (hydroxypropylcellulose) (HPC).
Setting [10] is: endpoint: mean survival time, dose: 100.0 mg/kg/injection, schedule: Q01DX001 (ip), vehicle: Klucel (hydroxypropylcellulose) (HPC).
The mark [11] stands for this setting: endpoint: mean survival time, dose: 200.0 mg/kg/injection, schedule: Q01DX001 (ip), vehicle: Klucel (hydroxypropylcellulose) (HPC).
[12] abbreviates: endpoint: mean survival time, dose: 100.0 mg/kg/injection, schedule: Q04DX003 (ip), vehicle: saline with Tween-80.
The mark [13] stands for this setting: endpoint: mean survival time, dose: 200.0 mg/kg/injection, schedule: Q04DX003 (ip), vehicle: saline with Tween-80.
Where [14] appears, read: endpoint: mean survival time, dose: 100.0 mg/kg/injection, schedule: Q01DX001 (ip), vehicle: saline with Tween-80.
Where [15] appears, read: endpoint: mean survival time, dose: 400.0 mg/kg/injection, schedule: Q01DX001 (ip), vehicle: saline with Tween-80.

“And” between values parts separate entries of the source, which are not always exact repeats. Equal values may be shown once. Inconclusive results and toxic doses are left out.

Turning to `O=C1NC(=S)S/C1=C\c1ccc([N+](=O)[O-])cc1`, under setting [1], the T/C was 90 % of control.

`c1ccc(-c2ccc3ncccc3c2)cc1`: the T/C by setting is: under setting [1], 97 % of control; under setting [2], 100 % of control; under setting [3], 105 % of control.

Take `COc1ccc(/C=N/NC(=O)c2ccccc2)c(OC)c1`: the T/C runs as follows: under setting [4], 100 % of control; under setting [5], 100 % of control; under setting [6], 103 % of control.

With `C/C=C/CC1(c2ccccc2)C(=O)NC(=S)NC1=O`, the T/C was 108 % of control (endpoint: mean survival time, dose: 75.0 mg/kg/injection, schedule: Q01DX001 (ip), vehicle: other); 107 % of control (endpoint: mean survival time, dose: 150.0 mg/kg/injection, schedule: Q01DX001 (ip), vehicle: other); 103 % of control (endpoint: mean survival time, dose: 300.0 mg/kg/injection, schedule: Q01DX001 (ip), vehicle: other).

On to `Nc1ncnc2c(C(=O)O)c[nH]c12`, for which the T/C reads like this: (endpoint: mean survival time, dose: 100.0 mg/kg/injection, schedule: Q01DX001 (ip), vehicle: other) 98 % of control; (endpoint: mean survival time, dose: 200.0 mg/kg/injection, schedule: Q01DX001 (ip), vehicle: other) 110 % of control; (endpoint: mean survival time, dose: 400.0 mg/kg/injection, schedule: Q01DX001 (ip), vehicle: other) 111 % of control.

`CCOC(=O)/C=C(\C)OC`: the T/C was 102 % of control under setting [4]; 96 % of control under setting [7]; 97 % of control under setting [5]; 105 % of control under setting [8]; 94 % of control under setting [6]; 100 % of control under setting [9].

For the compound `c1ccc([C]([Hg][C](=C(c2ccccc2)c2ccccc2)c2ccccc2)=C(c2ccccc2)c2ccccc2)cc1`, the T/C is 95 % of control (endpoint: mean survival time, dose: 50.0 mg/kg/injection, schedule: Q01DX001 (ip), vehicle: Klucel (hydroxypropylcellulose) (HPC)); 88 % of control under setting [10]; 90 % of control under setting [11].

On to `COC(=O)c1ccccc1N=NNc1cccc(SC)c1`, for which the T/C is 95 % of control under setting [12] and 93 % of control under setting [13].

`CCCCN(Cl)C(C)=O`: the T/C under setting [1] is 96 % of control, the T/C under setting [2] was 100 % of control and the T/C under setting [3] is 96 % of control.

In the case of `Nc1c(Cl)cc2c(c1Cl)Cc1c-2cc(Br)c(N)c1Br`, the T/C reads like this: (endpoint: median survival time, dose: 5.0 mg/kg/injection, schedule: Q04DX003 (ip), vehicle: saline) 121 % of control; (endpoint: median survival time, dose: 10.0 mg/kg/injection, schedule: Q04DX003 (ip), vehicle: saline) 153 % of control; (endpoint: median survival time, dose: 20.0 mg/kg/injection, schedule: Q04DX003 (ip), vehicle: saline) 180 % of control; (endpoint: median survival time, dose: 40.0 mg/kg/injection, schedule: Q04DX003 (ip), vehicle: saline) 223 % of control; (endpoint: median survival time, dose: 50.0 mg/kg/injection, schedule: Q07DX003 (ip), vehicle: saline) 211 % of control; (endpoint: median survival time, dose: 80.0 mg/kg/injection, schedule: Q04DX003 (ip), vehicle: saline) 223 % of control. The T/C is, setting by setting: (endpoint: median survival time, dose: 100.0 mg/kg/injection, schedule: Q07DX003 (ip), vehicle: saline) 202 % of control; (endpoint: median survival time, dose: 200.0 mg/kg/injection, schedule: Q07DX003 (ip), vehicle: saline) 54 % of control; (endpoint: median survival time, dose: 400.0 mg/kg/injection, schedule: Q07DX003 (ip), vehicle: saline) 53 % of control.

With `N#CCCCI`, the T/C is 96 % of control (endpoint: mean survival time, dose: 50.0 mg/kg/injection, schedule: Q04DX003 (ip), vehicle: acetone); 100 % of control (endpoint: mean survival time, dose: 100.0 mg/kg/injection, schedule: Q04DX003 (ip), vehicle: acetone); 105 % of control (endpoint: mean survival time, dose: 200.0 mg/kg/injection, schedule: Q04DX003 (ip), vehicle: acetone).

For the compound `Cc1nc(N)[nH]c(=O)c1N` (tested in a mixture with another compound), the T/C by setting is: under setting [14], 103 % of control; (endpoint: mean survival time, dose: 200.0 mg/kg/injection, schedule: Q01DX001 (ip), vehicle: saline with Tween-80) 107 % of control; under setting [15], 97 % of control.

As for `CC(C)CCOc1ccc(N)c([N+](=O)[O-])c1`, the T/C reads like this: (endpoint: mean survival time, dose: 6.25 mg/kg/injection, schedule: Q01DX009 (ip), vehicle: saline with Tween-80) 105 % of control; (endpoint: mean survival time, dose: 12.5 mg/kg/injection, schedule: Q01DX009 (ip), vehicle: saline with Tween-80) 100 % of control; (endpoint: mean survival time, dose: 25.0 mg/kg/injection, schedule: Q01DX009 (ip), vehicle: saline with Tween-80) 103 % of control; (endpoint: mean survival time, dose: 50.0 mg/kg/injection, schedule: Q01DX009 (ip), vehicle: saline with Tween-80) 94 % of control; under setting [12], 97 % of control; under setting [13], 100 % of control.

Take `Cc1cc2c(cc1C)C(O)C(N1CCN(C)CC1)CCC2` (centres undefined): the T/C was 103 % of control (endpoint: mean survival time, dose: 50.0 mg/kg/injection, schedule: Q04DX003 (ip), vehicle: saline with Tween-80); 97 % of control under setting [12]; 92 % of control under setting [13].

Take `O=C1CCCCC1Nc1ccc(Br)cc1` (centres undefined): the T/C was 98 % of control under setting [1], 98 % of control under setting [2] and 98 % of control under setting [3].

Consider `COC1OC2COCOC2C(OC(C)=O)C1OC(C)=O` (centres undefined), for which the T/C is 104 % of control (endpoint: mean survival time, dose: 50.0 mg/kg/injection, schedule: Q04DX002 (ip), vehicle: Klucel (hydroxypropylcellulose) (HPC)); 103 % of control and 100 % of control (endpoint: mean survival time, dose: 100.0 mg/kg/injection, schedule: Q04DX002 (ip), vehicle: Klucel (hydroxypropylcellulose) (HPC)); 95 % of control and 104 % of control and 92 % of control (endpoint: mean survival time, dose: 200.0 mg/kg/injection, schedule: Q04DX002 (ip), vehicle: Klucel (hydroxypropylcellulose) (HPC)); 103 % of control and 113 % of control (endpoint: mean survival time, dose: 400.0 mg/kg/injection, schedule: Q04DX002 (ip), vehicle: Klucel (hydroxypropylcellulose) (HPC)).

As to `NC(=O)Nc1ccc(C(=O)O)cc1`, the T/C under setting [10] is 95 % of control; the T/C under setting [7] was 100 % of control; the T/C under setting [11] was 91 % of control; the T/C under setting [8] is 97 % of control; the T/C (endpoint: mean survival time, dose: 400.0 mg/kg/injection, schedule: Q01DX001 (ip), vehicle: Klucel (hydroxypropylcellulose) (HPC)) was 98 % of control; the T/C under setting [9] was 98 % of control.

Consider `CC(=O)Nc1ccccc1SC(C)=O`, for which the T/C (endpoint: mean survival time, dose: 100.0 mg/kg/injection, schedule: Q04DX003 (ip), vehicle: other) was 88 % of control.

Turning to `CC(=O)Nc1cc2c(cc1[N+](=O)[O-])-c1ccc([N+](=O)[O-])cc1C2`, the T/C runs as follows: under setting [4], 95 % of control; under setting [7], 93 % of control; under setting [5], 89 % of control; under setting [8], 91 % of control; under setting [6], 94 % of control; under setting [9], 94 % of control.

Consider `COC(=O)c1cccc2cn3ccc4c5ccccc5nc-4c3cc12`, for which the T/C by setting is: (endpoint: mean survival time, dose: 25.0 mg/kg/injection, schedule: Q01DX001 (ip), vehicle: saline with Tween-80) 98 % of control; (endpoint: mean survival time, dose: 50.0 mg/kg/injection, schedule: Q01DX001 (ip), vehicle: saline with Tween-80) 92 % of control; under setting [14], 95 % of control and 92 % of control; under setting [15], 92 % of control.

For `O=[N+]([O-])c1ccc(O)c(C=NCCCN=Cc2cc([N+](=O)[O-])ccc2O)c1`, the T/C by setting is: under setting [1], 90 % of control; under setting [2], 102 % of control; under setting [3], 96 % of control.

In the case of `N#CCCN(CCCN1CCOCC1)C(=S)Nc1cccc(C(F)(F)F)c1`, the T/C by setting is: (endpoint: mean survival time, dose: 100.0 mg/kg/injection, schedule: Q04DX002 (ip), vehicle: saline with Tween-80) 92 % of control; (endpoint: mean survival time, dose: 400.0 mg/kg/injection, schedule: Q04DX002 (ip), vehicle: saline with Tween-80) 100 % of control.

As for `O=c1ccc2c([N+](=O)[O-])cc([N+](=O)[O-])c(O)c2[nH]1`, the T/C reads like this: under setting [1], 101 % of control; under setting [2], 101 % of control.

With `O=C(CCCC(=O)NNC(=O)Nc1ccc(Br)cc1)NNC(=O)Nc1ccc(Br)cc1`, the T/C (endpoint: mean survival time, dose: 50.0 mg/kg/injection, schedule: Q01DX001 (ip), vehicle: saline) is 93 % of control; the T/C under setting [1] was 100 % of control; the T/C under setting [2] is 96 % of control; the T/C under setting [3] is 96 % of control.

`CC12CCC(O)CC1=CCC1C2CCC2(C)C(C(O)CC(O)(C(F)(F)F)C(F)(F)F)CCC12` (centres undefined): the T/C runs as follows: under setting [12], 92 % of control; under setting [13], 93 % of control; (endpoint: mean survival time, dose: 400.0 mg/kg/injection, schedule: Q04DX003 (ip), vehicle: saline with Tween-80) 93 % of control.

These data come from PubChem BioAssay AID248 (DTP/NCI, 2004).
